What was measured:
Vero E6 [1] = assay: drug sensitivity score (DSS) for viability; higher = more toxic; extreme values may be limits of the assay; conditions: 72 h
Caco-2 [2] = assay: as above; conditions: 72 h
U2OS [3] = assay: as above; conditions: 72 h
HepG2 [4] = assay: as above; conditions: 72 h
Calu-3 [5] = assay: as above; conditions: 72 h
Vero E6 [6] = assay: cell viability relative to DMSO; higher = less toxic; conditions: 72 h
Caco-2 [7] = assay: as above; conditions: 72 h
U2OS [8] = assay: as above; conditions: 72 h
HepG2 [9] = assay: as above; conditions: 72 h
Calu-3 [10] = assay: as above; conditions: 72 h
Vero E6 [11] = assay: relative viability EC50 (midpoint between 100% and the lowest measured viability); higher = less toxic; conditions: 72 h
Caco-2 [12] = assay: as above; conditions: 72 h
U2OS [13] = assay: as above; conditions: 72 h
HepG2 [14] = assay: as above; conditions: 72 h
Calu-3 [15] = assay: as above; conditions: 72 h
[16] = system: A549-ACE2 infected with SARS-CoV-2; assay: morphology score (similarity to uninfected cells); higher = more like uninfected cells; conditions: 24 h
A549-ACE2 = assay: drug-induced phospholipidosis relative to tamoxifen; higher = more phospholipidosis
[17] = system: A549-ACE2 infected with SARS-CoV-2; assay: cell count relative to DMSO; higher = less toxic; conditions: 24 h
[18] = system: A549-ACE2 infected with SARS-CoV-2; assay: SARS-CoV-2 infection rate relative to DMSO; higher = more infection; conditions: 24 h

NC(=O)C1=CN([C@@H]2O[C@H](COP(=O)(O)OP(=O)(O)OC[C@H]3O[C@@H](n4cnc5c(N)ncnc54)[C@H](OP(=O)(O)O)[C@@H]3O)[C@@H](O)[C@H]2O)C=CC1 [NADPH]
Conditions	drug sensitivity score	relative viability EC50 [µM]
Caco-2 [2]	0	–
Caco-2 [12]	–	> 10
Calu-3 [5]	0.1	–
Calu-3 [15]	–	> 10
HepG2 [4]	0	–
HepG2 [14]	–	> 10
U2OS [3]	0	–
U2OS [13]	–	> 10
Vero E6 [1]	0	–
Vero E6 [11]	–	> 10

cell viability [%]
Conditions	Caco-2 [7]	Calu-3 [10]	HepG2 [9]	U2OS [8]	Vero E6 [6]
1 nM	86.7	90.8	101	94.1	105
10 nM	92.7	85.1	104	101	86
100 nM	88.4	87.7	97.7	98.4	103
1000 nM	93	91	86.2	102	94.6
10000 nM	91.9	101	104	98.1	99.5

Fc1ccc(-c2nc3n(c2-c2ccncc2)CCS3)cc1
Conditions	drug sensitivity score	relative viability EC50 [µM]
Caco-2 [2]	0.2	–
Caco-2 [12]	–	> 10
Calu-3 [5]	0	–
Calu-3 [15]	–	> 10
HepG2 [4]	0	–
HepG2 [14]	–	> 10
U2OS [3]	0	–
U2OS [13]	–	> 10
Vero E6 [1]	0	–
Vero E6 [11]	–	> 10

cell viability [%]
Conditions	Caco-2 [7]	Calu-3 [10]	HepG2 [9]	U2OS [8]	Vero E6 [6]
1 nM	99.6	95.2	97.3	99	97.8
10 nM	101	86.2	93.2	97.8	99.7
100 nM	90.9	90.9	97.8	98.7	98.2
1000 nM	89.4	87.7	99.9	96.1	99.1
10000 nM	92	101	100	97.6	93

COc1ccc(CCC(=O)Nc2nc3ccc(Cl)cc3s2)cc1OC
Conditions	drug sensitivity score	relative viability EC50 [µM]
Caco-2 [2]	0.3	–
Caco-2 [12]	–	> 10
Calu-3 [5]	0.1	–
Calu-3 [15]	–	> 10
HepG2 [4]	0	–
HepG2 [14]	–	> 10
U2OS [3]	0	–
U2OS [13]	–	> 10
Vero E6 [1]	0	–
Vero E6 [11]	–	> 10

cell viability [%]
Conditions	Caco-2 [7]	Calu-3 [10]	HepG2 [9]	U2OS [8]	Vero E6 [6]
1 nM	102	102	96.5	101	101
10 nM	94	94.9	110	94.7	96.9
100 nM	95.9	92.7	96.3	98.5	97.3
1000 nM	92.1	91.7	98.3	95.1	101
10000 nM	85.4	89.3	98.1	96.3	95.2

CCCCOc1ccc(OCCCN2CCOCC2)cc1 [pramoxine]
Conditions	drug sensitivity score	relative viability EC50 [µM]
Caco-2 [2]	0	–
Caco-2 [12]	–	> 10
Calu-3 [5]	0	–
Calu-3 [15]	–	> 10
HepG2 [4]	0	–
HepG2 [14]	–	> 10
U2OS [3]	0	–
U2OS [13]	–	> 10
Vero E6 [1]	0	–
Vero E6 [11]	–	> 10

cell viability [%]
Conditions	Caco-2 [7]	Calu-3 [10]	HepG2 [9]	U2OS [8]	Vero E6 [6]
1 nM	105	104	97.1	105	103
10 nM	109	99.1	98.3	105	97.3
100 nM	97.8	87.1	98.1	104	98.8
1000 nM	95.8	95.1	94.7	102	102
10000 nM	98	102	98.9	99.3	103

Nc1ccc(/N=N/c2ccccc2)c(N)n1 [phenazopyridine]
Conditions	drug sensitivity score	relative viability EC50 [µM]
Caco-2 [2]	0	–
Caco-2 [12]	–	> 10
Calu-3 [5]	0	–
Calu-3 [15]	–	> 10
HepG2 [4]	0	–
HepG2 [14]	–	> 10
U2OS [3]	0	–
U2OS [13]	–	> 10
Vero E6 [1]	0.3	–
Vero E6 [11]	–	> 10

cell viability [%]
Conditions	Caco-2 [7]	Calu-3 [10]	HepG2 [9]	U2OS [8]	Vero E6 [6]
1 nM	85.4	91.9	91.1	94	109
10 nM	102	102	91.8	98.4	88.6
100 nM	97	88.1	105	95.7	102
1000 nM	99.8	99.1	89.4	99.2	102
10000 nM	94	95.8	100	103	82.7

CS(=O)(=O)N(Cc1ccco1)C[C@@H](O)Cn1c2ccccc2c2ccccc21 [KL-001]
Conditions	drug sensitivity score	relative viability EC50 [µM]
Caco-2 [2]	0	–
Caco-2 [12]	–	> 10
Calu-3 [5]	0	–
Calu-3 [15]	–	> 10
HepG2 [4]	0	–
HepG2 [14]	–	> 10
U2OS [3]	0	–
U2OS [13]	–	> 10
Vero E6 [1]	0	–
Vero E6 [11]	–	> 10

cell viability [%]
Conditions	Caco-2 [7]	Calu-3 [10]	HepG2 [9]	U2OS [8]	Vero E6 [6]
1 nM	95.6	105	98.9	98.3	99
10 nM	98.5	93.2	104	98.4	101
100 nM	102	101	97.2	99	97.6
1000 nM	94.1	115	104	93.7	100
10000 nM	94.6	110	106	90	98

CCCC[C@@H](C=O)NC(=O)[C@H](CC(C)C)NC(=O)OCc1ccccc1 [calpeptin]
Conditions	drug sensitivity score	relative viability EC50 [µM]
Caco-2 [2]	0	–
Caco-2 [12]	–	> 10
HepG2 [4]	0	–
HepG2 [14]	–	> 10
U2OS [3]	0	–
U2OS [13]	–	> 10
Vero E6 [1]	0	–
Vero E6 [11]	–	> 10

Conditions	SARS-CoV-2 infection rate, [18] [%]	cell count, [17] [%]	cell viability, Caco-2 [7] [%]	cell viability, HepG2 [9] [%]	cell viability, U2OS [8] [%]	cell viability, Vero E6 [6] [%]	morphology score, [16]
1 nM	–	–	96.8	99.8	104	97.5	–
10 nM	–	–	97	95.1	98.8	99.6	–
100 nM	–	–	100	98.2	103	102	–
0.3 µM	56	114	–	–	–	–	0.69
1000 nM	–	–	94.5	98.3	95.8	98	–
3 µM	29	120	–	–	–	–	0.91
10000 nM	–	–	97.7	92.2	96.4	92.1	–
10 µM	13	123	–	–	–	–	0.9
30 µM	8	118	–	–	–	–	0.77

drug-induced phospholipidosis [%], A549-ACE2
Conditions	0.3 µM	0.833333 µM	3.33333 µM	6.66667 µM	10 µM	30 µM
24 h	5.73	6.24	10.6	21.3	26.2	64.5
48 h	3.11	2.48	7.49	16.9	26.6	77.2
72 h	4.92	2.16	4.48	13.5	24.6	87.8
